What was measured:
[1] = molecular target: T1, Orco-Or47a (Drosophila melanogaster, UniProt P81921+Q9VNB5); experiment: Exogenous membrane protein function before drying and after drying-rehydration, Orco-Or47a stable expression cell line; type: cell-based; parameters: remnant residues; expressed in transfected cells; host or cells: Pv11 cells (Polypedilum vanderplanki), CRIS-PITCh knock-in at the Pv.00443 locus downstream of the 121 promoter, Zeocin selection and single-cell sorting; settings: before drying
T1 sequence (Q9VNB5 1-486): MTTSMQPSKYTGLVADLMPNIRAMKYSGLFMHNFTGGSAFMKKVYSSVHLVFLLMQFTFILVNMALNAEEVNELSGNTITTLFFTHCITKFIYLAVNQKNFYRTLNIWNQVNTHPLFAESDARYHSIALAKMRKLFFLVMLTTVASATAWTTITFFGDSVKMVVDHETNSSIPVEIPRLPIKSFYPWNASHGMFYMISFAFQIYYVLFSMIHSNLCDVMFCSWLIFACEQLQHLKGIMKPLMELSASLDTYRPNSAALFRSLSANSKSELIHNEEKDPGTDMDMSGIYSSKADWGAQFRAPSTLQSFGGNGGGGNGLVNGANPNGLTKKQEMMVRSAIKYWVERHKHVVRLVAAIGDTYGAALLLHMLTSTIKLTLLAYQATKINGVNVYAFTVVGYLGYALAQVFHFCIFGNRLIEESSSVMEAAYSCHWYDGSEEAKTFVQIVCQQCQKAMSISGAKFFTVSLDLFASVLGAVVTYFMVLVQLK
T1 sequence (P81921 1-385): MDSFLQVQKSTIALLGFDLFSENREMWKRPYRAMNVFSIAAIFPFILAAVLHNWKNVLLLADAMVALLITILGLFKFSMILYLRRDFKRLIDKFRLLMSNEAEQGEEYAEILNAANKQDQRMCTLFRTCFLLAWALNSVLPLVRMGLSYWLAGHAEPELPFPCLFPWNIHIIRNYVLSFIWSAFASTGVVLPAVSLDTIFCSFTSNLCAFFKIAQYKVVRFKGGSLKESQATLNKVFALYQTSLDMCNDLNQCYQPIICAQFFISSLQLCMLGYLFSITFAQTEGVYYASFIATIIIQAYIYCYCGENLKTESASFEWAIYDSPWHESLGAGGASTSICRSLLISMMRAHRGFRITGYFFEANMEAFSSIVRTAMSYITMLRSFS
Procedure: To assess the drought tolerance of the cell lines, the cells were dried according to the following protocol. 4×10^7 Pv11-GCaMP6f stable expression cell lines were centrifuged at 700 g for 3 minutes and the supernatant removed. The precipitated cells were suspended in a 600 mM trehalose mix of 600 mM trehalose and IPL-41 medium at a ratio of 9:1, transferred to a 2 ml flask, and incubated at 25° C. for 48 hours. After 48 hours, the obtained cells were centrifuged at 700 g for 3 minutes and the supernatant was removed. The sedimented cells were suspended in 400 μl of 600 mM trebalose mix, and 40 μl were dropped onto a 35 mm dish. The 35 mm dish was dried for 10 days under conditions of 25° C. and humidity of 10% or less.
6. Assessment of exogenous membrane protein function after drying-rehydration. Using the Orco stable expression cell line and Orco-Or47a stable expression cell line, in order to assess the function of exogenous membrane proteins before drying and after 1 hour of rehydration after drying, fluorescence intensity generated in response to stimulation with VUAA1 (Orco agonist) or pentyl acetate (ligand of Or47a) was measured in the same manner as in 3.2 above.
The fluorescence intensity was digitized from the photograph, and ΔF/F was calculated according to the following formula:
Where the summation Σi=1^n is over the n cells in the image, Fi,after means the fluorescence intensity of the cell i after adding the ligand solution, and Fi,0 means the fluorescence intensity of the cell i before adding the ligand solution.
Specifically, a fluorescence image was taken under the condition in which the excitation wavelength/fluorescence wavelength was 488 nm/525 nm. In the fluorescence intensity quantification, the cells were identified in the photographed image, and the fluorescence intensity (F) was measured for each time. The initial values of fluorescence intensity (F0) were subtracted from the measured fluorescence intensity at each time to obtain the amount of change in fluorescence (ΔF), which was then normalized by dividing by the initial value of fluorescence intensity (F0) to obtain (Δ F/F0). A number of cells n were selected from the captured image, ΔF/F0 were produced for each, and the average value (including standard deviation, SD) of the results was graphed. For example, 25 cells were selected from the captured image, ΔF/F0 for each were produced, and the averaged results (including SD) were graphed. […] The Orco-Or47a stable expression cell line before drying responded to the Orco agonist (VUAA1) and the specific ligand of Or47a, pentyl acetate.

[2] = tested on: Pv11 cells; settings: previous study; cited from earlier work
[3] = tested on: Orco-Or47a; experiment: Response after rehydration with cycloheximide treatment, Orco-Or47a stable expression cell line; type: cell-based, Drosophila melanogaster
Procedure: 7. Confirmation that exogenous membrane protein responses in Orco-Or47a stable expression cell lines immediately after rehydration are not due to de novo protein synthesis. To confirm that the membrane protein response of the Orco-Or47a stable expression cell line immediately after rehydration was not due to de novo protein synthesis, cells were treated with cycloheximide (CHX, a protein synthesis inhibitor).
A previous study reported that 0.35 mM of cycloheximide is able to inhibit protein production in Pv11 cells. Therefore, also in this experiment, cycloheximide was dissolved in IPL-41 medium so that the cycloheximide concentration was 0.35 mM. An IPL-41 medium with 0.01 mM, 0.07 mM and 0.7 mM cycloheximide was also prepared. […] One hour after rehydration and 24 hours after rehydration, the same operation as in 3.6 above was performed, and the fluorescence intensity was measured and analyzed. […] FIG. 7A and FIG. 7B are graphs showing changes in fluorescence intensity of the Orco-Or47a stable expression cell line response to VUAA1 and pentyl acetate, respectively, one hour after drying and rehydration. FIGS. 7C and 7D are graphs showing changes in fluorescence intensity, respectively, in response to VUAA1 and pentyl acetate of Orco-Or47a stable expression cell lines 24 hours after drying and rehydration.

[4] = tested on: GCaMP6f stable expression cell line; experiment: Functionality of GCaMP6f with ionomycin; type: cell-based, Polypedilum vanderplanki; settings: ionomycin final concentration 1 μM, DMSO 1%; DMSO negative control showed no increase
Procedure: 3.2 The functionality of GCaMP6f. The functionality of GCaMP6f in the resulting cell lines was evaluated using Ionomycin (Ionomycin; Fujifilm Wako Pure Chemical) to increase the intracellular concentration of calcium ions to provide functional confirmation of exogenous proteins in the GCaMP6f stable-expressing cell line. Ionomycin was dissolved in dimethyl sulfoxide (DMSO; Fujifilm Wako Pure Chemical Industries, Ltd.), adjusted to a final DMSO concentration of 1% and an ionomycin final concentration of 1 μM in IP1-41 medium, and added to the cell solution. As a negative control, DMSO was adjusted to a final concentration of 1% in IP 1-41 medium and added to the cell solution. Bright-field images and fluorescence images (ex: 470/40 nm; em: 525/50 nm) of the cells before and after solution addition were taken (all-in-one fluorescence microscope BZ-X710, Keyence). […] Therefore, it was confirmed that the expressed GCaMP6f functioned in the obtained stable expression cell line. For statistical analysis of fluorescence intensity, one-way ANOVA was performed using Prism8 (GraphPad), followed by Tukey's multiple comparison test as a post-hoc test, […]

CC(=O)c1ccccc1 [acetophenone]
response as change in fluorescence intensity (ΔF/F0) [1]: did not react

C[C@@H]1C[C@@H]([C@H](O)CC2CC(=O)NC(=O)C2)C(=O)[C@@H](C)C1 [cycloheximide]
concentration able to inhibit protein production [2]: 0.35 mM
effect of cycloheximide on function of the exogenous membrane protein ([3]; 1 hour after rehydration, cycloheximide 0.01, 0.07, 0.35, 0.7 mM, response to VUAA1 or pentyl acetate): no significant difference
effect of CHX treatment on response ([3]; 24 hours after rehydration, response to VUAA1 and pentyl acetate): less responsive

C[C@H](CCC(=O)O)C[C@H](C)C[C@H](C)C(=O)/C=C(\O)[C@H](C)C[C@H](C)C/C=C/[C@@H](C)[C@@H](O)[C@@H](C)[C@@H](O)C[C@@H]1CC[C@@](C)([C@H]2CC[C@@](C)([C@@H](C)O)O2)O1 [ionomycin, Ionomycin]
fluorescence after addition [4]: stronger fluorescence than before the addition

Source: patent US20250197799A1, “CELLS DERIVED FROM POLYPEDILUM VANDERPLANKI AND ODOR SENSOR EQUIPPED THEREWITH” (University of Maryland, College Park, priority 2022, published 2025)
